Test results published in patent US20240139333A1, “2,6-DICHLOROPHENYL ESTER COMPOUNDS AND USE THEREOF” (Fusion Pharmaceuticals Inc., priority 2021, published 2024).
Values belong to the compound of their own block, whether it stands above or below them.

How the values were obtained:
[1] = Comparative active ester reactivity study with HOPO nucleophile; settings: 1,2-HOPO 1 eq., 22±2° C.
Description: (§1) General Experimental Protocol for Comparative Active Ester Reactivity Study with HOPO or HOA Nucleophiles
(§2) To a 4 mL scintillation vial containing Compound A-E (in respective experiments; 1 eq.) was added a stir bar followed by 150 μL of HPLC grade acetonitrile. In another 4 mL scintillation vial containing a respective nucleophile (1 eq.) was added 280 μL HPLC grade water. The solutions were combined and allowed to stir at room temperature (22±2° C.) for 4 hours. Timed aliquots at time (T)=15, 30, 60, 120 and 240 minutes were taken and analyzed by HPLC-MS using elution method 1 (Table 1).

[2] = Comparative active ester reactivity study with HOA nucleophile (benzhydroxamic acid); settings: Benzhydroxamic Acid 1 eq., 22±2° C.
Description: as §1, §2

DMSO stability study = assay type: physicochemical
Description: To a 4 mL scintillation vial containing Compound A-E (in respective experiments; 4 mg) was added a stir bar followed by 500 μL of anhydrous dimethyl sulfoxide and was allowed to stir at room temperature (22±2° C.) for 4 hours. Timed aliquots at time (T)=15, 30, 60, 120 and 240 minutes were taken, dissolved in water to achieve 2% DMSO composition and analyzed by HPLC-MS using elution method 1 (Table 5).

[3] = Comparative active ester reactivity study with HOA nucleophile (N-hydroxy-N-methylbenzamide); settings: N-Hydroxy-N-methylbenzamide 1 eq., 22±2° C.
Description: as §1, §2

[4] = Temperature stability study in H2O; assay type: physicochemical
Description: (§3) 20° C.: To a 4 mL scintillation vial containing Compound A-E (in respective experiments; 0.8 mg) was added 4 mL of HPLC grade water to create a 0.2 mg/mL solution. 2 mL of this solution was added to a 2 mL HPLC vial and placed in the auto sampler of an HPLC-MS at 20° C. Timed aliquots at time (T)=15, 30, 60, 120, 240 and 480 minutes were taken and analyzed by HPLC-MS using elution method 1 (Table 4).
50° C.: To a 4 mL scintillation vial containing Compound A-E (in respective experiments; 0.8 mg) was added a stir bar followed by 4 mL of HPLC grade water to create a 0.2 mg/mL solution. The vial was capped and allowed to stir in a 50° C. oil bath for 8 hours. Timed aliquots at time (T) =15, 30, 60, 120, 240 and 480 minutes were taken and analyzed by HPLC-MS using elution method 1 (Table 4).

pH stability study = assay type: physicochemical; settings: 20° C.
Description: as §3, with “To” for “20° C.: To”, “either a pH 3, pH 5 pH 7 or pH 9 buffer” for “HPLC grade water”, “3). […]” for “4).”
pH 3 Buffer: Citric acid/Na2HPO4 (79.45 mL 0.1 M-citric acid and 20.55 mL 0.2-Na2HPO4) pH 5 Buffer: Citric acid/Na2HPO4 (48.50 mL 0.1 M-citric acid and 51.50 mL 0.2-Na2HPO4) pH 7 Buffer: Citric acid/Na2HPO4 (17.65 mL 0.1 M-citric acid and 82.35 mL 0.2-Na2HPO4) pH 9 Buffer: Sodium Carbonate/Sodium Bicarbonate (10 mL 0.1 M-Na2CO3 and 90 mL 0.1-NaHCO3)

[5] = Nucleophilic reactivity study with L-Lysine; settings: L-Lysine 5 equiv, 22±2° C.
Description: General Experimental Protocol for Nucleophilic Reactivity Study with L-Lysine
To a 4 mL scintillation vial containing Compound A-E (in respective experiments; 1 eq.) was added a stir bar followed by 70 μL of HPLC grade acetonitrile. In another 4 mL scintillation vial containing L-Lysine monohydrochloride (5 eq.) was added 130 μL HPLC grade water followed by diisopropylethylamine (5 eq.). The solutions were combined and allowed to stir at room temperature (22±2° C.). Timed aliquots at time (T)=15, 30, 60 and 120 minutes were taken and analyzed by HPLC-MS using elution method 1 (Table 2).

[6] = Stability of Compound J at pH = 2; assay type: physicochemical; settings: pH 2, 20° C.
Description: To an HPLC vial was added a 0.2 mg/mL solution of Compound J dissolved in H2O (0.1% v/v TFA) at pH=2 and the stability was monitored by HPLC-MS at 20° C. over 16 hours. Timed aliquots at time (T)=0, 30, 60, 120, 180, 240, 480 and 960 minutes were taken and analyzed by HPLC-MS using elution method 4 at 214 nm (Table 9).

- % Active Ester Remaining ([1]; 15 min): 99.18%
- % Active Ester Remaining ([1]; 30 min): 96.81%
- % Active Ester Remaining ([1]; 60 min): 93.29%
- % Active Ester Remaining ([1]; 120 min): 85.25%
- % Active Ester Remaining ([1]; 240 min): 75.07%
- % Active Ester Remaining ([2]; 15 min): 96.49%
- % Active Ester Remaining ([2]; 30 min): 84.28%
- % Active Ester Remaining ([2]; 60 min): 74.58%
- % Active Ester Remaining ([2]; 120 min): 57.07%
- % Active Ester Remaining ([2]; 240 min): 34.21%
- % Active Ester Remaining in DMSO at 22 ± 2° C. (DMSO stability study; 15 min): 99.35%
- % Active Ester Remaining in DMSO at 22 ± 2° C. (DMSO stability study; 30 min): 98.99%
- % Active Ester Remaining in DMSO at 22 ± 2° C. (DMSO stability study; 60 min): 99.29%
- % Active Ester Remaining in DMSO at 22 ± 2° C. (DMSO stability study; 120 min): 99.65%
- % Active Ester Remaining in DMSO at 22 ± 2° C. (DMSO stability study; 240 min): 99.31%
- % Active Ester Remaining ([3]; 15 min): 95.63%
- % Active Ester Remaining ([3]; 30 min): 90.98%
- % Active Ester Remaining ([3]; 60 min): 83.40%
- % Active Ester Remaining ([3]; 120 min): 65.46%
- % Active Ester Remaining ([3]; 240 min): 41.73%
- % Remaining ([4]; 20° C., 15 min): 97.54%
- % Remaining ([4]; 20° C., 30 min): 96.41%
- % Remaining ([4]; 20° C., 60 min): 95.69%
- % Remaining ([4]; 20° C., 120 min): 94.78%
- % Remaining ([4]; 20° C., 240 min): 93.59%
- % Remaining ([4]; 20° C., 480 min): 91.31%
- % Remaining ([4]; 50° C., 15 min): 86.19%
- % Remaining ([4]; 50° C., 30 min): 77.18%
- % Remaining ([4]; 50° C., 60 min): 72.58%
- % Remaining ([4]; 50° C., 120 min): 67.54%
- % Remaining ([4]; 50° C., 240 min): 65.59%
- % Remaining ([4]; 50° C., 480 min): 66.22%
- % Remaining (pH stability study; pH 3 buffer, 15 min): 100%
- % Remaining (pH stability study; pH 3 buffer, 30 min): 99.74%
- % Remaining (pH stability study; pH 3 buffer, 60 min): 99.57%
- % Remaining (pH stability study; pH 3 buffer, 120 min): 99.21%
- % Remaining (pH stability study; pH 3 buffer, 240 min): 98.55%
- % Remaining (pH stability study; pH 3 buffer, 480 min): 97.20%
- % Remaining (pH stability study; pH 5 buffer, 15 min): 99.83%
- % Remaining (pH stability study; pH 5 buffer, 30 min): 99.54%
- % Remaining (pH stability study; pH 5 buffer, 60 min): 99.19%
- % Remaining (pH stability study; pH 5 buffer, 120 min): 98.63%
- % Remaining (pH stability study; pH 5 buffer, 240 min): 97.52%
- % Remaining (pH stability study; pH 5 buffer, 480 min): 94.89%
- % Remaining (pH stability study; pH 7 buffer, 15 min): 99.11%
- % Remaining (pH stability study; pH 7 buffer, 30 min): 98.00%
- % Remaining (pH stability study; pH 7 buffer, 60 min): 96.59%
- % Remaining (pH stability study; pH 7 buffer, 120 min): 94.83%
- % Remaining (pH stability study; pH 7 buffer, 240 min): 89.25%
- % Remaining (pH stability study; pH 7 buffer, 480 min): 78.56%
- % Remaining (pH stability study; pH 9 buffer, 15 min): 83.05%
- % Remaining (pH stability study; pH 9 buffer, 30 min): 61.77%
- % Remaining (pH stability study; pH 9 buffer, 60 min): 42.40%
- % Remaining (pH stability study; pH 9 buffer, 120 min): 23.66%
- % Remaining (pH stability study; pH 9 buffer, 240 min): 14.96%
- % Remaining (pH stability study; pH 9 buffer, 480 min): 10.31%
- % Active Ester Remaining ([5]; 15 min): 8.34%
- % Active Ester Remaining ([5]; 30 min): 0%
Compound: O=C(CCc1cccnc1)Oc1ccc([N+](=O)[O-])cc1 [Compound D, 4-Nitrophenyl-3-(pyridin-3-yl)propanoate]

- % Active Ester Remaining ([1]; 15 min): 15.47%
- % Active Ester Remaining ([1]; 30 min): 12.28%
- % Active Ester Remaining ([1]; 60 min): 11.06%
- % Active Ester Remaining ([1]; 120 min): 7.15%
- % Active Ester Remaining ([1]; 240 min): 3.69%
- % Active Ester Remaining ([2]; 15 min): 1.13%
- % Active Ester Remaining ([2]; 30 min): 0.85%
- % Active Ester Remaining ([2]; 60 min): 0.67%
- % Active Ester Remaining ([2]; 120 min): 0.49%
- % Active Ester Remaining ([2]; 240 min): 0.35%
- % Active Ester Remaining in DMSO at 22 ± 2° C. (DMSO stability study; 15 min): 97.29%
- % Active Ester Remaining in DMSO at 22 ± 2° C. (DMSO stability study; 30 min): 97.13%
- % Active Ester Remaining in DMSO at 22 ± 2° C. (DMSO stability study; 60 min): 96.83%
- % Active Ester Remaining in DMSO at 22 ± 2° C. (DMSO stability study; 120 min): 94.53%
- % Active Ester Remaining in DMSO at 22 ± 2° C. (DMSO stability study; 240 min): 91.57%
- % Active Ester Remaining ([3]; 15 min): 32.07%
- % Active Ester Remaining ([3]; 30 min): 20.77%
- % Active Ester Remaining ([3]; 60 min): 11.58%
- % Active Ester Remaining ([3]; 120 min): 6.52%
- % Active Ester Remaining ([3]; 240 min): 4.21%
- % Remaining ([4]; 20° C., 15 min): 87.24%
- % Remaining ([4]; 20° C., 30 min): 78.45%
- % Remaining ([4]; 20° C., 60 min): 70.03%
- % Remaining ([4]; 20° C., 120 min): 54.46%
- % Remaining ([4]; 20° C., 240 min): 24.99%
- % Remaining ([4]; 20° C., 480 min): 4.50%
- % Remaining ([4]; 50° C., 15 min): 72.20%
- % Remaining ([4]; 50° C., 30 min): 47.31%
- % Remaining ([4]; 50° C., 60 min): 20.75%
- % Remaining ([4]; 50° C., 120 min): 3.50%
- % Remaining ([4]; 50° C., 240 min): 0.10%
- % Remaining ([4]; 50° C., 480 min): 0%
- % Remaining (pH stability study; pH 3 buffer, 15 min): 80.40%
- % Remaining (pH stability study; pH 3 buffer, 30 min): 59.68%
- % Remaining (pH stability study; pH 3 buffer, 60 min): 44.51%
- % Remaining (pH stability study; pH 3 buffer, 120 min): 26.16%
- % Remaining (pH stability study; pH 3 buffer, 240 min): 8.98%
- % Remaining (pH stability study; pH 3 buffer, 480 min): 1.00%
- % Remaining (pH stability study; pH 5 buffer, 15 min): 85.59%
- % Remaining (pH stability study; pH 5 buffer, 30 min): 52.98%
- % Remaining (pH stability study; pH 5 buffer, 60 min): 33.12%
- % Remaining (pH stability study; pH 5 buffer, 120 min): 13.81%
- % Remaining (pH stability study; pH 5 buffer, 240 min): 2.33%
- % Remaining (pH stability study; pH 5 buffer, 480 min): 0%
- % Remaining (pH stability study; pH 7 buffer, 15 min): 86.24%
- % Remaining (pH stability study; pH 7 buffer, 30 min): 44.91%
- % Remaining (pH stability study; pH 7 buffer, 60 min): 19.80%
- % Remaining (pH stability study; pH 7 buffer, 120 min): 4.02%
- % Remaining (pH stability study; pH 7 buffer, 240 min): 0%
- % Remaining (pH stability study; pH 9 buffer, 15 min): 6.98%
- % Remaining (pH stability study; pH 9 buffer, 30 min): 1.20%
- % Remaining (pH stability study; pH 9 buffer, 60 min): 0.74%
- % Remaining (pH stability study; pH 9 buffer, 120 min): 0%
- % Active Ester Remaining ([5]; 15 min): 0%
Compound: O=C(CCc1cccnc1)ON1C(=O)CCC1=O [Compound E, 2,5-Dioxo-1-pyrrolidinyl 3-pyridinepropanoate]

Compound: CC(=O)N(O)CCCCCNC(=O)CCC(=O)N(O)CCCCCNC(=O)CCC(=O)N(O)CCCCCNC(=O)CCOCCOCCOCCOCCOCCOCCOCCOCCOCCOCCOCCOCCC(=O)Oc1c(Cl)cccc1Cl [Compound J, 2,6-Dichlorophenyl 1-{[5-(N-hydroxy-3-{8 5-(N-hydroxy-3-{[5-(N-hydroxyacetamido)pentyl]carbamoyl}propanamido)pentyl]carbamoyl}propanamido)pentylic carbamoyl}-3,6,9,12,15,18,21,24,27,30,33,36-dodecaoxanonatriacontan-39-oate]
- % Compound J Remaining ([6]; 0 min): 97.49%
- % Compound J Remaining ([6]; 30 min): 97.21%
- % Compound J Remaining ([6]; 60 min): 96.67%
- % Compound J Remaining ([6]; 120 min): 96.11%
- % Compound J Remaining ([6]; 180 min): 96.14%
- % Compound J Remaining ([6]; 240 min): 94.83%
- % Compound J Remaining ([6]; 480 min): 94.39%
- % Compound J Remaining ([6]; 960 min): 91.48%
